Read-outs that look alike come from different tables or passages of the source.
Experiments:
[1] = biological target: T1, hSP-A (human SP-A, isolated from BAL of PAP patient) (Homo sapiens, UniProt Q8IWL1+Q8IWL2); test: Microscale thermophoresis (MST) binding to hSP-A; set-up: Response Amplitude: unit not given here; settings: for binding of hSP-A in the absence or presence of low calcium concentrations: 0 and 2.5 mM calcium (Fig. 3A-C); for Response Amplitude / Kd: hSP-A
T1 construct: Human PAP patient, BAL isolated; from tissue; host or cells: bronchoalveolar lavage fluid of a patient with pulmonary alveolar proteinosis
Procedure: (§1) Human-isolated and recombinant proteins were labeled using the Monolith Protein Labeling Kit RED-NHS according to the manufacturer’s instructions. This kit reagent reacts with lysine residues present in the sequence of the protein, as the dye carries a reactive NHS-ester group. Briefly, as all the proteins were in a Tris buffer solution, the buffer solution was exchanged to a HEPES-based buffer with the A-Column provided in the kit. Then, 10 µM solution of protein was incubated with a threefold excess of dye in 100 µL for 30 min at room temperature protected from light. The labeled protein was separated from the free dye using the B-Column provided in the kit. The concentration of the labeled protein {c(M) = [A205 − (A650 × 0.19)]/[31 × MWprotein]) and the degree of labeling [DOL = A650/(195.000 M^−1cm^−1 × c(M)] were calculated according to the manufacturer’s instruction, measuring absorption at 205 nm (for the protein) and 650 nm (for the dye).
(§2) Thermophoresis is the phenomenon of movement of particles along a temperature gradient. Solvated molecules move from higher to lower temperature. This movement or depletion of molecules from the heat is quantified by the Soret coefficient ST: Chot/Ccold = exp (−STΔT). The depletion of molecules depends on the interface between molecule and solvent. Therefore, thermophoresis monitors changes in size, charge, and solvation entropy of molecules. In this regard, the thermophoresis or movement of a protein is different from a protein-ligand complex ([35]). Microscale or miniaturized thermophoresis allows to monitor molecular interaction in only a few microliters. For this method, the fluorescently labeled protein is mixed with a decreasing concentration of a ligand in 16 glass capillaries. The initial fluorescence is measured (Fcold), then an infrared (IR) laser beam is switched on and focused on the center of the first capillary, where the temperature gradient is created from the center to the walls of the capillary. At the same time, a dichroic mirror allows fluorescence from the labeled protein to be monitored (Fhot). The rate of fluorescence change is related to the amount of protein-ligand complex form, which depends on the ligand concentration, due to changes in size, charge, or hydration shell of the protein-ligand complex. The dissociation constant KD is calculated from the binding curve derived by plotting the normalized fluorescence (FNorm) at a given time after the start of the thermophoresis against the respective ligand concentration ([33], [34], [36]).
(§3) Samples were measured in a Monolith NT.115, using Premium Capillaries (MO-K025) and Monolith Protein labeling kit RED-NHS (MO-L011) all from NanoTemper Technologies (Munich, Germany). Solutions of a 3X concentrated MST buffer (15 mM Tris, 300 mM NaCl, 0.3% Tween 20, 15 mM CaCl2, pH 7.4), sugars (270 mM) or GAG (30 µM) solution, and protein solution (27 nM) were prepared separately. When a different concentration was used, a threefold concentration of the solution was prepared. Afterward, sugars and GAG solutions were diluted 1:2 with water in a series of 16 steps. For the measurement, 3 µL of each prepared component (3 µL MST buffer, 3 µL GAG solution, and 3 µL labeled protein) was mixed, centrifuged shortly to eliminate precipitates, and loaded into a glass capillary. The final concentrations of the sugars were thus between 90 –and 0.00275 mM or GAGs 10 and 0.000305 µM for GAGs, respectively. The 16 capillaries were loaded in the Monolith NT.115 and measurements were performed with a 40% LED power and medium MST power at 25°C.
(§4) Every set of 16 capillaries was prepared in 3–6 replicates (technical replicates) and measured. The replicate measures of every capillary were plotted against concentration and outliers were excluded, using the MO Affinity Analysis 3 v01 software (NanoTemper Technologies, Munich, Germany). […]

[2] = biological target: T2, hSP-D (human SP-D, isolated from BAL of PAP patient) (Homo sapiens, UniProt P35247); test: Microscale thermophoresis (MST) binding to hSP-D; settings: for Kd: GAGs from Fig. 2, read-out: Kd (±KD Confidence); for Response Amplitude: MST, GAGs from Fig. 2
T2 construct: hSP-D; 0.6 µM; Human PAP patient, BAL isolated; from tissue; host or cells: bronchoalveolar lavage fluid of a patient with pulmonary alveolar proteinosis
T2 sequence (P35247 21-375): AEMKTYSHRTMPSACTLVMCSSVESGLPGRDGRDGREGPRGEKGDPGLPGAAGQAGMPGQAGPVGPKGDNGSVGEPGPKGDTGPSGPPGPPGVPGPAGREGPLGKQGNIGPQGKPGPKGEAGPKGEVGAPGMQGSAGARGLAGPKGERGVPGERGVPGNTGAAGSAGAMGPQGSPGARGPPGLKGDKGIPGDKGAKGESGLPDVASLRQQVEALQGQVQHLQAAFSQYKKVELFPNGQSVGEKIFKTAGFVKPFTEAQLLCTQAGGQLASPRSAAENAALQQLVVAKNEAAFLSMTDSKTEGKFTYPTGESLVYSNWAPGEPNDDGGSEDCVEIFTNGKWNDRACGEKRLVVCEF
Procedure: as §1, §2, §3, §4

[3] = GAGs from Fig. 2, read-out: Kd (±KD Confidence)

T1 sequence (Q8IWL2 21-248): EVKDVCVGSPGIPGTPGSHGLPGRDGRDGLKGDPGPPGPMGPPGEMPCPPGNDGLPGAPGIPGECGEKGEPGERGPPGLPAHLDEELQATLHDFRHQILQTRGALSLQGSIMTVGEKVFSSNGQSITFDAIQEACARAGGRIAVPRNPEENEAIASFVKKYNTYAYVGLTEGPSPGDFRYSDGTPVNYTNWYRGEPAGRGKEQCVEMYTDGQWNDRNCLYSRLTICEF
T1 sequence (Q8IWL1 21-248): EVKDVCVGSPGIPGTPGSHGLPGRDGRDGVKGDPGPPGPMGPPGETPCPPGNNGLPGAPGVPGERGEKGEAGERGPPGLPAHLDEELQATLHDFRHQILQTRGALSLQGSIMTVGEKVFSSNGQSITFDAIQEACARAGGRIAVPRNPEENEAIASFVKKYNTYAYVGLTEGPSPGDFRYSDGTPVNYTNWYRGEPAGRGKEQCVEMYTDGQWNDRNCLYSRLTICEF

Which “binding of hSP-A in the absence or presence of low calcium concentrations” value ([1]; MST) does the source give for heparan sulfate sodium [HS] here?
The value was “binds”.

And the “Response Amplitude” value ([1]; 0 mM Ca^2+)?
Its value is 3.61.

What about the Kd ([1]; 0 mM Ca^2+, read-out: KD) of the same substance?
Its Kd is 3.22 nM.

And the “Response Amplitude” value ([1]; 2.5 mM Ca^2+)?
The value was 9.27.

And the Kd ([1]; 2.5 mM Ca^2+, read-out: KD)?
The Kd was 0.188 nM.

And the “Response Amplitude” value ([1]; 5 mM Ca^2+)?
The value was 7.51.

And the Kd ([1]; 5 mM Ca^2+, read-out: KD)?
Its Kd is 3.74 nM.

And the “Response Amplitude” value ([1]; 10 mM Ca^2+)?
The value was 2.79.

And the Kd ([1]; 10 mM Ca^2+, read-out: KD)?
Its Kd is 375 nM.

What about the Kd [1, 3] of the same substance?
The Kd was 23.3 nM.

And the “Response Amplitude” value ([1]; MST, GAGs from Fig. 2)?
Its value is 11.92.

And the Kd [2]?
The Kd was 5640 nM.

And the “Response Amplitude” value [2]?
The value was 3.03.

Which results are given for hyaluronic acid sodium salt [HA]?
binding of hSP-A in the absence or presence of low calcium concentrations ([1]; MST): not able to bind; Response Amplitude ([1]; 5 mM Ca^2+): 7.31; Kd ([1]; 5 mM Ca^2+, read-out: KD): 2.91 nM; Response Amplitude ([1]; 10 mM Ca^2+): 3.65; Kd ([1]; 10 mM Ca^2+, read-out: KD): 54.6 nM; Kd [1, 3]: 12.2 nM; Response Amplitude ([1]; MST, GAGs from Fig. 2): 12.93; Kd [2]: 2190 nM; Response Amplitude [2]: 3.45

chondroitin sulfate sodium salt [CS] was tested. Which “binding of hSP-A in the absence or presence of low calcium concentrations” value ([1]; MST) did it give?
The value was “binds”.

What about the “Response Amplitude” value ([1]; 0 mM Ca^2+) of the same substance?
The value was 7.16.

What about the Kd ([1]; 0 mM Ca^2+, read-out: KD) of the same substance?
The Kd was 0.999 nM.

What about the “Response Amplitude” value ([1]; 2.5 mM Ca^2+) of the same substance?
Its value is 13.45.

And the “Response Amplitude” value ([1]; 5 mM Ca^2+)?
Its value is 8.07.

And the Kd ([1]; 5 mM Ca^2+, read-out: KD)?
Its Kd is 7.38 nM.

What about the “Response Amplitude” value ([1]; 10 mM Ca^2+) of the same substance?
The value was 6.89.

And the Kd ([1]; 10 mM Ca^2+, read-out: KD)?
Its Kd is 5.91 nM.

And the Kd [1, 3]?
The Kd was 225 nM.

What about the “Response Amplitude” value ([1]; MST, GAGs from Fig. 2) of the same substance?
The value was 8.37.

And the Kd [2]?
The Kd was 5820 nM.

What about the “Response Amplitude” value [2] of the same substance?
Its value is 3.74.

From article PMC11380953, “Multivalent, calcium-independent binding of surfactant protein A and D to sulfated glycosaminoglycans of the alveolar epithelial glycocalyx” (American Journal of Physiology - Lung Cellular and …, 2024)
